# Measurements: US9975852B2, “Quinoline sulfonyl derivatives and uses thereof” (Health Sciences North Research Institute, priority 2013, dated 2018)
# Tests used:
# MCF7 = assay: SRB antiproliferative assay, MCF7; type: cell-based, human; details: Homo sapiens
# Experimental: (§1) Antiproliferative effects were determined by a sulforhodamine B (SRB) based protocol. For a typical screening experiment, 5,000-10,000 cells were inoculated into 100 μl medium per well of a 96-well microtiter plate as described previously. […] Some of the sample wells were fixed with 25 μl of 50% trichloroacetic acid (TCA) as a control of the cell population for each cell line at the time of drug addition (Tz). An aliquot of the frozen stock was thawed and diluted to the desired final maximum test-concentration with complete medium. Two to ten-fold serial dilutions were made to provide a total of seven drug concentrations (and a control [C]). Following addition of drugs, the culture plate was incubated for additional 48 h. Cells were fixed in situ by slowly adding 25 μl of ice-cold 50% (w/v) TCA (final concentration, 10% TCA), and were then incubated for 60 min at 4° C. The supernatant was discarded, and the plate was washed five times with tap water, followed by air-dry. 50 μl of SRB solution at 0.4% (w/v) in 1% acetic acid was added to each well, and the plate was incubated for >30 min at room temperature. Unbound SRB was removed by five washes with tap water, followed by air-drying. […] The relative growth rate (%) was calculated for each of the compound concentrations according to the following formula: (Ti−Tz)/(C−Tz)×100 In the formula, time zero (Tz), control growth (C), and OD for different concentration of tested compounds (Ti). The GI50 for each compound was obtained from a non-linear Sigmoidal dose-response (variable slope) curve which is fitted by GraphPad Prism™ v.4.03 software. Values were calculated for each of these parameters if the level of activity was reached. However, if the effect was not reached or was exceeded, the value for that parameter was expressed as greater or less than the maximum or minimum concentration tested. Flow Cytometry
# Jurkat lymphoma cells = assay: Flow cytometry, apoptosis of Jurkat lymphoma cells; type: cell-based; details: 0.75 μM VR-23, 48 hours
# Experimental: Asynchronously growing Jurkat lymphoma cells were incubated for 48 hours in the absence (sham control) or presence of Bortezomib alone or in combination with VR-23.
# [1] = Body weight of ATH490 mice; type: in vivo; details: VR-23 30 mg/kg
# Description: D0-D25/D29 denotes day 0 to days 25/29 post-drug treatment. […] The body weights of ATH490 mice are normalized on the basis that those of day 0 are 100%.
# Body weight of CD-1 mice = type: in vivo; details: 25 mg/kg/week VR-23 i.p.
# 184B5 = assay: SRB antiproliferative assay, 184B5 non-cancer breast cells; type: cell-based, human; details: Homo sapiens, 184B5, SRB
# Experimental: as §1
# MDA-MB468 = assay: SRB antiproliferative assay, MDA-MB468; type: cell-based, human; details: Homo sapiens
# Experimental: as §1
# MCF10A non-cancer cells = assay: Confocal microscopy of centrosomes, MCF10A non-cancer cells; type: cell-based, human; details: VR-23 20 μM, 3 hours post-DT
# Description: All immunocytochemistry experiments were visualized by confocal microscopy using a Zeiss 510 Meta laser scanning microscope (Carl Zeiss) equipped with a 63× objective lens, unless otherwise specified herein. Three lasers were utilized for excitation with the following band pass filter settings used for detection: Argon 488 nm (band pass 505-530), HeNe 543 nm (long pass 560) and 633 nm (long pass 650). All images were captured and analyzed using LSM 510 software included with the microscope (LSM Image Examiner™, Carl Zeiss).
# The synchronization at the G1/S border (more accurately at the beginning of S phase) was achieved by double thymidine block (DT). Briefly, exponentially growing cells are treated with 2.0 mM thymidine for 18 hours, followed by incubation for 11 hours in drug-free complete medium, by which time most cells are at mid-late G1 phase. The cells are then incubated for another 14 hours in 2.0 mM thymidine to arrest them at the G1/S border. To arrest cells at the G2/M phase, cells were maintained for 18 hours in complete medium containing nocodazole (50 ng/ml). Both these synchronization are reversible.
# MCF10A (non-cancer breast) cells synchronized at G1/S by DT were released into complete medium for 3 hours in the absence (control) or presence of VR-23 (20 μM), followed by immunostaining with an antibody specific for cyclin E (FIG. 19A) or Plk1 or Plk4 (FIG. 19B). […]
# [2] = target: T1, Trypsin-like proteasome activity in HeLa S3 cell lysates (Homo sapiens, UniProt Q99436); assay: Proteasome activity assay, trypsin-like; type: biochemical; details: read-out: Inhibition (IC50) Trypsin-like
# T1 construct: proteasomes were extracted in 0.5% NP40 buffer; endogenous in cells; host or cells: HeLa S3
# Experimental: Exponentially growing HeLa S3 cells were plated on 96-well plates. After overnight incubation, the cells were treated with different concentrations of drugs for 6 hours or left untreated (control). At the end of 6 hours, proteasomes were extracted in 0.5% NP40 buffer, and equal amounts of samples were incubated with 25 μM of fluorogenic substrates purchased from Boston Biochem (Cambridge Mass.). (LRR-specific for trypsin-like activity, LLE-specific for caspase-like activity and SUVY-specific for chymotrypsin like activity) in black-bottom 96-well plates at 37° C. Fluorescence was monitored every 5 min at the wavelength of 360 nm (excitation) and 480 nm (emission). Chymotrypsin activity was also determined by a kit-based method (similar to described above) purchased from Caymen Biochem (Ann Arbor, Mich.), using a fluorogenic substrate specific for chymotrypsin activity.
# Analysis of proteasome activity in HeLa S3 cell lysates treated with various compounds (FIG. 10). VR-23 inhibits proteasome activity. 20S proteasome activity was inhibited by 1 μM VR-23. MG132 and EGCG, known proteasome inhibitors, were used as positive controls. The PC positive control is cell lysates prepared from Jurkat cells with a high proteasome activity. “Asynchr” denote asynchronous HeLa S3 cells grown in the absence of VR-23.
structure (smiles),measurement,setting,value
"O=[N+]([O-])c1ccc(S(=O)(=O)N2CCN(c3ccnc4cc(Cl)ccc34)CC2)c([N+](=O)[O-])c1 [Compound 1, 7-Chloro-4-(4-(2,4-dinitrophenylsulfonyl)piperazin-1-yl)quinoline]",GI50,"MCF7; MCF7, 48 h, read-out: GI50 MCF7",2320 ± 800 nM
same,IC50,"MCF7; MCF7, SRB",2300 ± 800 nM
same,Cell killing by apoptosis,Jurkat lymphoma cells,"neither 6 nM of Bortezomib (FIG. 4, ii) nor 0.75 μM of VR-23 (FIG. 4, iv) induced substantial cell killing by apoptosis"
same,Toxic effect by body weight,[1],did not show any notable toxic effect
same,Ill effects by changes in body weights,Body weight of CD-1 mice,did not show any ill effects
same,IC50,184B5,9000 ± 100 nM
same,GI50,"184B5; 48 h, read-out: GI50 184B5",8990 ± 120 nM
same,IC50,MDA-MB468; MDA-MB-468,700 ± 100 nM
same,GI50,"MDA-MB468; MDA-MB-468, 48 h",700 ± 100 nM
same,Centrosome amplification in MCF10A,MCF10A non-cancer cells,did not cause centrosome amplification
same,IC50,[2],1 nM
